Series [1] in a line: Relaxivity measurements at 1.41 T in water and human plasma. Format: physicochemical. The following applies: 37° C., normalized to Gd. As for the experimental part:
Relaxivity measurements at 1.41 T were performed using a MiniSpec mq60 spectrometer (Bruker Analytik, Karlsruhe, Germany) operating at a resonance frequency of 60 MHz and a temperature of 37° C. The T1 relaxation times were determined using the standard inversion recovery (IR) method with a fixed relaxation delay of at least 5×T1. The variable inversion time (TI) was calculated automatically by the standard software of the MiniSpec mq60 (8 steps). The T2 measurements were performed by using a Carr-Purcell-Meiboom-Gill (CPMG) pulse sequence, applying a relaxation delay of at least 5×T1.
Each relaxivity measurement was performed using three different Gd concentrations (3 concentrations between 0.05 and 2 mM). The T1 and T2 relaxation times of the example compounds were measured in water and human plasma. Human plasma preparation: For each experiment fresh blood was taken from a volunteer using 10 mL citrate-tubes (Sarstedt S-Monovette 02.1067.001, 10 mL, Citrate). The 10 mL citrate-tubes were carefully inverted 10 times to mix blood and anticoagulant and centrifuged for 15 min at 1811 g at RT (Eppendorf, Centrifuge 5810R).
The relaxivities ri (where i=1, 2) were calculated based on the measured relaxation rates Ri in water and plasma:
where Ri(0) represent the relaxation rate of the respective solvent and CGd the concentration of the compound normalized to the Gadolinium. The Gadolinium concentrations of the investigated solutions were verified by Inductively Coupled Plasma Mass Spectrometry (ICP-MS Agilent 7500a, Waldbronn, Germany).

Series [2] concerns freshly isolated rat hepatocytes. Briefly: Uptake into freshly isolated rat hepatocytes. Type of series: cell-based. The following applies: uptake with OATP1B1/1B3 inhibitor Rifampicine 1:1, each 100 uM. As to the method:
Freshly isolated rat hepatocytes were received as described before (Papeleu P. et al. (2006) Isolation of Rat Hepatocytes. In: Phillips I. R., Shephard E. A. (eds) Cytochrome P450 Protocols. Methods in Molecular Biology, vol 320. Humana Press, Totowa, NJ. https://doi.org/10.1385/1-59259-998-2:229). The rat hepatocytes were incubated (2.5·10^5 cells/well) for 2.5 to 4 h in collagen coated 24-well plates (Fa. Beckton Dickinson Biocoat, cell environments, Collagen I Cellware) in Williams E-medium (Fa. Sigma W1878) in an incubator (37° C., 5% CO2 and […]). After incubation the adherent hepatocytes were washed once with 37° C. Hepes carbonate transport buffer (500 μL/well). The test items and RC3 were prepared from stock solutions (180 to 500 mM concentration) in Hepes carbonate transport buffer at pH 7.4 to reach a final concentration of 100 μmol Gd/L. The specific uptake of the test item or RC3 into rat hepatocytes via OATP1B1 and OATP1B3 was challenged using a known OATP1B1/1B3 inhibitor (Rifampicine, Fa. Sigma R3501, test item and inhibitor 1:1 each 100 µM final concentration). The prepared rat hepatocyte plates were incubated with test solutions (500 μL/well) at 37° C. for 10 min using a thermoshaker (Fa. Grant Bio, PHMP). Triplicates were performed for each test item. After incubating the cells were washed once with cold PBS buffer (Fa. Gibco, Dulbeccos PBS (+)). After washing the intact hepatocytes were lysed by addition of 500 μL cold 0.01% Triton-X 100 in Millipore water for 1 h. The strongly hypo-osmolar water led to cell membrane rupture and the release of the intracellular Gd-compound. After 1 h 500 μL of 10 nM Terbium ICP-MS standard was added in 2% nitric acid and 0.01% Triton 100 before the Gadolinium concentrations in the lysate were measured using ICP-MS (Agilent 8900, singleQuad, integr. Time 0.3 s, no gas, 5 replicates, Gd m/z 157, Tb m/z 159). As a reference standard RC3 is used in the same well plate. The hepatocyte uptake of the test compound is calculated relative to RC3 (resulting in the unit % of RC3).

Take `CC(C(=O)NCC(=O)NCC(CNC(=O)CNC(=O)C(C)N1CCN(CC(=O)[O-])CCN(CC(=O)[O-])CCN(CC(=O)[O-])CC1)C(=O)NCCN(CCNC(=O)C(CNC(=O)CNC(=O)C(C)N1CCN(CC(=O)[O-])CCN(CC(=O)[O-])CCN(CC(=O)[O-])CC1)CNC(=O)CNC(=O)C(C)N1CCN(CC(=O)[O-])CCN(CC(=O)[O-])CCN(CC(=O)[O-])CC1)C(=O)CNC(=O)C(C)N1CCN(CC(=O)[O-])CCN(CC(=O)[O-])CCN(CC(=O)[O-])CC1)N1CCN(CC(=O)[O-])CCN(CC(=O)[O-])CCN(CC(=O)[O-])CC1.[Gd+3].[Gd+3].[Gd+3].[Gd+3].[Gd+3]` (stereo not shown) [Compound 1]: in series [1], the r1 human plasma is 13.0 L/mmol/s and the r1 water amounted to 11.1 L/mmol/s.
As for `CC(C(=O)NCC(=O)NCC(CNC(=O)CNC(=O)C(C)N1CCN(CC(=O)[O-])CCN(CC(=O)[O-])CCN(CC(=O)[O-])CC1)C(=O)NCCN(CCNC(=O)C(CNC(=O)CNC(=O)C(C)N1CCN(CC(=O)[O-])CCN(CC(=O)[O-])CCN(CC(=O)[O-])CC1)CNC(=O)CNC(=O)C(C)N1CCN(CC(=O)[O-])CCN(CC(=O)[O-])CCN(CC(=O)[O-])CC1)C(=O)C(CNC(=O)CNC(=O)C(C)N1CCN(CC(=O)[O-])CCN(CC(=O)[O-])CCN(CC(=O)[O-])CC1)CNC(=O)CNC(=O)C(C)N1CCN(CC(=O)[O-])CCN(CC(=O)[O-])CCN(CC(=O)[O-])CC1)N1CCN(CC(=O)[O-])CCN(CC(=O)[O-])CCN(CC(=O)[O-])CC1.[Gd+3].[Gd+3].[Gd+3].[Gd+3].[Gd+3].[Gd+3]` (stereo not shown) [Compound 2], in series [1], the r1 human plasma turned out to be 13.9 L/mmol/s and the r1 water was found to be 12.1 L/mmol/s.
For `C[C@H](C(=O)NCC(=O)N1CCN(C(=O)CNC(=O)[C@@H](C)N2CCN(CC(=O)[O-])CCN(CC(=O)[O-])CCN(CC(=O)[O-])CC2)CC(C(=O)NCCN(CCNC(=O)C2CN(C(=O)CNC(=O)[C@@H](C)N3CCN(CC(=O)[O-])CCN(CC(=O)[O-])CCN(CC(=O)[O-])CC3)CCN(C(=O)CNC(=O)[C@@H](C)N3CCN(CC(=O)[O-])CCN(CC(=O)[O-])CCN(CC(=O)[O-])CC3)C2)C(=O)C2CN(C(=O)CNC(=O)[C@@H](C)N3CCN(CC(=O)[O-])CCN(CC(=O)[O-])CCN(CC(=O)[O-])CC3)CCN(C(=O)CNC(=O)[C@@H](C)N3CCN(CC(=O)[O-])CCN(CC(=O)[O-])CCN(CC(=O)[O-])CC3)C2)C1)N1CCN(CC(=O)[O-])CCN(CC(=O)[O-])CCN(CC(=O)[O-])CC1.[Gd+3].[Gd+3].[Gd+3].[Gd+3].[Gd+3].[Gd+3]` [Compound 5], in that order: 14.3 L/mmol/s and 13.0 L/mmol/s.
For `CC(C(=O)NCC(=O)N1CCN(C(=O)CNC(=O)C(C)N2CCN(CC(=O)[O-])CCN(CC(=O)[O-])CCN(CC(=O)[O-])CC2)CCN(C(=O)CNC(=O)C(C)N2CCN(CC(=O)[O-])CCN(CC(=O)[O-])CCN(CC(=O)[O-])CC2)CCN(C(=O)CNC(=O)C(C)N2CCN(CC(=O)[O-])CCN(CC(=O)[O-])CCN(CC(=O)[O-])CC2)CC1)N1CCN(CC(=O)[O-])CCN(CC(=O)[O-])CCN(CC(=O)[O-])CC1.[Gd+3].[Gd+3].[Gd+3].[Gd+3]` (stereo not shown) [Compound 7], in that order: 12.1 L/mmol/s and 10.8 L/mmol/s.
For `CC(C(=O)NCC(=O)NCC(NC(=O)CNC(=O)C(C)N1CCN(CC(=O)[O-])CCN(CC(=O)[O-])CCN(CC(=O)[O-])CC1)C(=O)N1CC23CN(C(=O)C(CNC(=O)CNC(=O)C(C)N4CCN(CC(=O)[O-])CCN(CC(=O)[O-])CCN(CC(=O)[O-])CC4)NC(=O)CNC(=O)C(C)N4CCN(CC(=O)[O-])CCN(CC(=O)[O-])CCN(CC(=O)[O-])CC4)CC2(C1)CN(C(=O)C(CNC(=O)CNC(=O)C(C)N1CCN(CC(=O)[O-])CCN(CC(=O)[O-])CCN(CC(=O)[O-])CC1)NC(=O)CNC(=O)C(C)N1CCN(CC(=O)[O-])CCN(CC(=O)[O-])CCN(CC(=O)[O-])CC1)C3)N1CCN(CC(=O)[O-])CCN(CC(=O)[O-])CCN(CC(=O)[O-])CC1.[Gd+3].[Gd+3].[Gd+3].[Gd+3].[Gd+3].[Gd+3]` (stereo not shown) [Compound 8], in that order: 14.6 L/mmol/s and 12.5 L/mmol/s.
As for `O=C([O-])CN1CCN(CC(=O)[O-])CCN(CC(=O)N2CCN(C(=O)CN3CCN(CC(=O)[O-])CCN(CC(=O)[O-])CCN(CC(=O)[O-])CC3)CC(C(=O)N3CC4CN(C(=O)C5CN(C(=O)CN6CCN(CC(=O)[O-])CCN(CC(=O)[O-])CCN(CC(=O)[O-])CC6)CCN(C(=O)CN6CCN(CC(=O)[O-])CCN(CC(=O)[O-])CCN(CC(=O)[O-])CC6)C5)CC(C3)N4)C2)CCN(CC(=O)[O-])CC1.[Gd+3].[Gd+3].[Gd+3].[Gd+3]` [Compound 9], the r1 water in series [1] was 7.4 L/mmol/s.
In series [1], `O=C([O-])CN1CCN(CC(=O)[O-])CCN(CC(=O)NCC(CNC(=O)CN2CCN(CC(=O)[O-])CCN(CC(=O)[O-])CCN(CC(=O)[O-])CC2)(CNC(=O)CN2CCN(CC(=O)[O-])CCN(CC(=O)[O-])CCN(CC(=O)[O-])CC2)CNC(=O)CN2CCN(CC(=O)[O-])CCN(CC(=O)[O-])CCN(CC(=O)[O-])CC2)CCN(CC(=O)[O-])CC1.[Gd+3].[Gd+3].[Gd+3].[Gd+3]` [Compound 10] showed a r1 human plasma of 9.7 L/mmol/s and a r1 water of 7.3 L/mmol/s.
Consider `CCOCCOc1ccc(CC(C(=O)[O-])N2CCN(CC(=O)[O-])CCN(C(CC)C(=O)O)CCN(CC(=O)[O-])CC2)cc1.[Gd+3]` (stereo not shown) [Compound 13], for which the “Inhibition Rifampicine” value in series [2] is reported as 99 % inhibition. In series [1], this molecule came in with a r1 human plasma of 7.4 L/mmol/s and a r1 water of 4.5 L/mmol/s.
In the case of `CCCCOc1ccc(CC(C(=O)[O-])N2CCN(CC(=O)[O-])CCN(CC(=O)[O-])CCN(CC(=O)O)CC2)cc1.[Gd+3]` (stereo not shown) [Compound 14], the “Inhibition Rifampicine” value in series [2] turned out to be 98 % inhibition. Moreover, in series [1], the r1 human plasma amounted to 13.3 L/mmol/s and the r1 water came to 4.3 L/mmol/s.
The corresponding values for `CCOCCOCCOc1ccc(CCC[C@@H](C(=O)O)N2CCN([C@@H](CO)C(=O)[O-])CCN([C@@H](CO)C(=O)[O-])CCN([C@@H](CO)C(=O)[O-])CC2)cc1.[Gd+3]` [Compound 15] are 94 % inhibition, 8.7 L/mmol/s and 5.1 L/mmol/s.
On to `CCOCCOCCOc1ccc(CCC[C@H](C(=O)O)N2CCN([C@H](CO)C(=O)[O-])CCN([C@H](CO)C(=O)[O-])CCN([C@H](CO)C(=O)[O-])CC2)cc1.[Gd+3]` [Compound 16], for which the “Inhibition Rifampicine” value in series [2] was 92 % inhibition. In series [1], this molecule came in with a r1 human plasma of 9.0 L/mmol/s and a r1 water of 5.3 L/mmol/s.
The corresponding values for `CCCC(C(=O)[O-])N1CCN(CC(=O)[O-])CCN(C(Cc2ccc(OCC)cc2)C(=O)O)CCN(CC(=O)[O-])CC1.[Gd+3]` (stereo not shown) [Compound 17] are 99 % inhibition, 7.5 L/mmol/s and 4.4 L/mmol/s.
For `CCCCOc1ccc(CCCC(C(=O)O)N2CCN(CC(=O)O)CCN(CC(=O)O)CCN(CC(=O)O)CC2)cc1` (stereo not shown) [Compound 18], in that order: 94 % inhibition, 15.8 L/mmol/s and 4.4 L/mmol/s.
For `CCCCOc1cccc(CCC[C@@H](C(=O)O)N2CCN([C@@H](CO)C(=O)[O-])CCN([C@@H](CO)C(=O)[O-])CCN([C@@H](CO)C(=O)[O-])CC2)c1.[Gd+3]` [Compound 19], in that order: 90 % inhibition, 18.0 L/mmol/s and 4.9 L/mmol/s.

(Values after patent US20260077069A1, “COMBINATIONS OF CONTRAST AGENTS” (BAYER AKTIENGESELLSCHAFT, priority 2022, published 2026).)
